Bridge positions count the residues as written; N and C are the ends. Square brackets hold non-standard residues; d marks the D form. Peptide text beside a SMILES is read from it. * marks the point of attachment. ξ: configuration not given here. Phe(4-COOH) = N[C@@H](Cc1ccc(C(=O)O)cc1)C(=O)O; Bip = N[C@@H](Cc1ccc(-c2ccccc2)cc1)C(=O)O; Phe(3-Me) = Cc1cccc(C[C@H](N)C(=O)O)c1; hArg = N=C(N)NCCCC[C@H](N)C(=O)O; 3Thi = N[C@@H](Cc1ccsc1)C(=O)O; Cha = N[C@@H](CC1CCCCC1)C(=O)O; Cit = NC(=O)NCCC[C@H](N)C(=O)O; Thr(3ξ) = CC(O)[C@H](N)C(=O)O; Carboxymethyl = O=C(O)C*; Orn = NCCC[C@H](N)C(=O)O; Aun = NCCCCCCCCCCC(=O)O; Dab = NCC[C@H](N)C(=O)O; Dap = NC[C@H](N)C(=O)O; AEEA = NCCOCCOCC(=O)O
Biological target: T1, PD-1/PD-L1 interaction (PE-labeled human PD-L1-Ig binding to Jurkat cell line over-expressing human PD-1) (Homo sapiens, UniProt Q15116)
T1 construct: expressed in transfected cells; host or cells: Jurkat
T1 sequence (Q15116 25-288): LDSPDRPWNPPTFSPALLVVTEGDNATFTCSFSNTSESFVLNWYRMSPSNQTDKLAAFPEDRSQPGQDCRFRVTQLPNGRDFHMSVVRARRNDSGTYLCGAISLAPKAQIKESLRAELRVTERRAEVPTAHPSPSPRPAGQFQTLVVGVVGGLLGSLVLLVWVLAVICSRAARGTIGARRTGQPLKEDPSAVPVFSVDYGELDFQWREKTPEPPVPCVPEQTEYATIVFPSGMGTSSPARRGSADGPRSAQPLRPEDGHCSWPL
Assay: Jurkat-PD-1 Cell Binding High-Content Screening Assay (CBA)
Assay type: cell-based
Conditions: Jurkat cell line over-expressing human PD-1; PE-labeled PD-L1-Ig 20 nM final; read-out: Jurkat hPD1-PDL1 IC50
Procedure, shortened: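 Human PD-L1-Ig carrying a covalent PE label on its Ig tag serves as the probe, applied at 20 nM final to compound-treated (2 h, 37° C) Jurkat-hPD-1 cells in medium with 10% fetal calf serum. After one hour, fixation and nuclear staining precede high-content image analysis.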

## CC(C)C[C@H]1NC(=O)[C@H](CCCN)NC(=O)[C@H](C(C)C)NC(=O)[C@H](Cc2ccc(-c3ccccc3)cc2)NC(=O)[C@H](C(C)C)NC(=O)[C@H](Cc2c[nH]c3ccccc23)NC(=O)[C@H](CC(=O)O)NC(=O)[C@H](Cc2ccc(OCC(=O)O)cc2)NC(=O)[C@H](Cc2ccsc2)NC(=O)CSC[C@@H](C(=O)NCCOCCOCC(=O)N[C@@H](CCCN)C(=O)NCCCCCCCCCCC(=O)O)NC(=O)[C@H](C(C)O)NC(=O)[C@H](C(C)C)NC(=O)[C@H](CC2CCCCC2)NC(=O)[C@H](CCN)NC1=O (stereo partly drawn) [Compound 3211] ({CH2CO}-[3Thi]Y(Carboxymethyl)DWV[Bip]V[Orn][dL][Dab][Cha]V[Thr(3ξ)]C[AEEA][Orn][Aun]-OH; thioether N-14)
  IC50: 18.3 nM

## CC(C)C[C@H]1NC(=O)[C@H](CCN)NC(=O)[C@H](C(C)C)NC(=O)[C@H](Cc2ccc(-c3ccccc3)cc2)NC(=O)[C@H](C(C)C)NC(=O)[C@H](Cc2c[nH]c3ccccc23)NC(=O)[C@H](CC(=O)O)NC(=O)[C@H](Cc2ccc(OCC(=O)O)cc2)NC(=O)[C@H](CCCCNC(=N)N)NC(=O)CSC[C@@H](C(=O)NCCOCCOCC(=O)N[C@@H](CCCN)C(=O)NCCCCCCCCCCC(=O)O)NC(=O)[C@H](C(C)O)NC(=O)[C@H](C(C)C)NC(=O)[C@H](CC2CCCCC2)NC(=O)[C@H](CCN)NC1=O (stereo partly drawn) [Compound 3212] ({CH2CO}-[hArg]Y(Carboxymethyl)DWV[Bip]V[Dab][dL][Dab][Cha]V[Thr(3ξ)]C[AEEA][Orn][Aun]-OH; thioether N-14)
  IC50: 13.7 nM

## CC(C)C[C@H]1NC(=O)[C@H](CCCN)NC(=O)[C@H](C(C)C)NC(=O)[C@H](Cc2ccc(-c3ccccc3)cc2)NC(=O)[C@H](C(C)C)NC(=O)[C@H](Cc2c[nH]c3ccccc23)NC(=O)[C@H](CC(=O)O)NC(=O)[C@H](Cc2ccc(OCC(=O)O)cc2)NC(=O)[C@H](CCCCNC(=N)N)NC(=O)CSC[C@@H](C(=O)N[C@@H](CCN)C(=O)NCCOCCOCC(=O)NCCCCCCCCCCC(=O)O)NC(=O)[C@H](CCCNC(N)=O)NC(=O)[C@H](C(C)C)NC(=O)[C@H](CC2CCCCC2)NC(=O)[C@H](CC(N)=O)NC1=O [Compound 3213] ({CH2CO}-[hArg]Y(Carboxymethyl)DWV[Bip]V[Orn][dL]N[Cha]V[Cit]C[Dab][AEEA][Aun]-OH; thioether N-14)
  IC50: 13.5 nM

## CC(C)C[C@H]1NC(=O)[C@H](CCCN)NC(=O)[C@H](C(C)C)NC(=O)[C@H](Cc2ccc(-c3ccccc3)cc2)NC(=O)[C@H](C(C)C)NC(=O)[C@H](Cc2c[nH]c3ccccc23)NC(=O)[C@H](CC(=O)O)NC(=O)[C@H](Cc2ccc(OCC(=O)O)cc2)NC(=O)[C@H](CCCCNC(=N)N)NC(=O)CSC[C@@H](C(=O)N[C@@H](CCN)C(=O)NCCOCCOCC(=O)NCCCCCCCCCCC(=O)O)NC(=O)[C@H](CN)NC(=O)[C@H](C(C)C)NC(=O)[C@H](CC2CCCCC2)NC(=O)[C@H](CC(N)=O)NC1=O [Compound 3214] ({CH2CO}-[hArg]Y(Carboxymethyl)DWV[Bip]V[Orn][dL]N[Cha]V[Dap]C[Dab][AEEA][Aun]-OH; thioether N-14)
  IC50: 22.8 nM

## CC(C)C[C@H]1NC(=O)[C@H](CCCN)NC(=O)[C@H](C(C)C)NC(=O)[C@H](Cc2ccc(-c3ccccc3)cc2)NC(=O)[C@H](C(C)C)NC(=O)[C@H](Cc2c[nH]c3ccccc23)NC(=O)[C@H](CC(=O)O)NC(=O)[C@H](Cc2ccc(OCC(=O)O)cc2)NC(=O)[C@H](CCCCNC(=N)N)NC(=O)CSC[C@@H](C(=O)N[C@@H](CCN)C(=O)NCCOCCOCC(=O)NCCCCCCCCCCC(=O)O)NC(=O)[C@H](CCN)NC(=O)[C@H](C(C)C)NC(=O)[C@H](CC2CCCCC2)NC(=O)[C@H](CC(N)=O)NC1=O [Compound 3215] ({CH2CO}-[hArg]Y(Carboxymethyl)DWV[Bip]V[Orn][dL]N[Cha]V[Dab]C[Dab][AEEA][Aun]-OH; thioether N-14)
  IC50: 25.3 nM

## CC(C)C[C@H]1NC(=O)[C@H](CCCN)NC(=O)[C@H](C(C)C)NC(=O)[C@H](Cc2ccc(-c3ccccc3)cc2)NC(=O)[C@H](C(C)C)NC(=O)[C@H](Cc2c[nH]c3ccccc23)NC(=O)[C@H](CC(=O)O)NC(=O)[C@H](Cc2ccc(OCC(=O)O)cc2)NC(=O)[C@H](CCCCNC(=N)N)NC(=O)CSC[C@@H](C(=O)N[C@@H](CCN)C(=O)NCCOCCOCC(=O)NCCCCCCCCCCC(=O)O)NC(=O)[C@H](CCCN)NC(=O)[C@H](C(C)C)NC(=O)[C@H](CC2CCCCC2)NC(=O)[C@H](CC(N)=O)NC1=O [Compound 3216] ({CH2CO}-[hArg]Y(Carboxymethyl)DWV[Bip]V[Orn][dL]N[Cha]V[Orn]C[Dab][AEEA][Aun]-OH; thioether N-14)
  IC50: 35.2 nM

## CC(C)C[C@H]1NC(=O)[C@H](CCCN)NC(=O)[C@H](C(C)C)NC(=O)[C@H](Cc2ccc(-c3ccccc3)cc2)NC(=O)[C@H](C(C)C)NC(=O)[C@H](Cc2c[nH]c3ccccc23)NC(=O)[C@H](CC(=O)O)NC(=O)[C@H](Cc2ccc(OCC(=O)O)cc2)NC(=O)[C@H](CCCCNC(=N)N)NC(=O)CSC[C@@H](C(=O)N[C@@H](CCN)C(=O)NCCOCCOCC(=O)NCCCCCCCCCCC(=O)O)NC(=O)[C@H](CCCCN)NC(=O)[C@H](C(C)C)NC(=O)[C@H](CC2CCCCC2)NC(=O)[C@H](CC(N)=O)NC1=O [Compound 3217] ({CH2CO}-[hArg]Y(Carboxymethyl)DWV[Bip]V[Orn][dL]N[Cha]VKC[Dab][AEEA][Aun]-OH; thioether N-14)
  IC50: 17.9 nM

## CC(C)C[C@H]1NC(=O)[C@H](CCCN)NC(=O)[C@H](C(C)C)NC(=O)[C@H](Cc2ccc(-c3ccccc3)cc2)NC(=O)[C@H](C(C)C)NC(=O)[C@H](Cc2c[nH]c3ccccc23)NC(=O)[C@H](CC(=O)O)NC(=O)[C@H](Cc2ccc(OCC(=O)O)cc2)NC(=O)[C@H](CCCCNC(=N)N)NC(=O)CSC[C@@H](C(=O)N[C@@H](CCCNC(N)=O)C(=O)NCCOCCOCC(=O)NCCCCCCCCCCC(=O)O)NC(=O)[C@H](CCCN)NC(=O)[C@H](C(C)C)NC(=O)[C@H](CC2CCCCC2)NC(=O)[C@H](CC(N)=O)NC1=O [Compound 3218] ({CH2CO}-[hArg]Y(Carboxymethyl)DWV[Bip]V[Orn][dL]N[Cha]V[Orn]C[Cit][AEEA][Aun]-OH; thioether N-14)
  IC50: 26.9 nM

## Cc1cccc(C[C@@H]2NC(=O)[C@H](CC(=O)O)NC(=O)[C@H](Cc3ccc(OCC(=O)O)cc3)NC(=O)[C@H](CCCNC(=N)N)NC(=O)CSC[C@@H](C(=O)N[C@@H](CCCCN)C(=O)NCCCCCCCCCCC(=O)O)NC(=O)[C@H](CCCN)NC(=O)[C@H](C(C)C)NC(=O)[C@H](CC3CCCCC3)NC(=O)[C@H](CCN)NC(=O)[C@@H](CC(C)C)NC(=O)[C@H](CCCN)NC(=O)[C@H](C(C)C)NC(=O)[C@H](Cc3ccc(-c4ccccc4)cc3)NC(=O)[C@H](C(C)C)NC2=O)c1 [Compound 3219] ({CH2CO}-RY(Carboxymethyl)D[Phe(3-Me)]V[Bip]V[Orn][dL][Dab][Cha]V[Orn]CK[Aun]-OH; thioether N-14)
  IC50: 9.6 nM

## Cc1cccc(C[C@@H]2NC(=O)[C@H](CC(=O)O)NC(=O)[C@H](Cc3ccc(OCC(=O)O)cc3)NC(=O)[C@H](CCCNC(=N)N)NC(=O)CSC[C@@H](C(=O)NCCOCCOCC(=O)N[C@@H](CCN)C(=O)NCCCCCCCCCCC(=O)O)NC(=O)[C@H](CN)NC(=O)[C@H](C(C)C)NC(=O)[C@H](CC3CCCCC3)NC(=O)[C@H](CCN)NC(=O)[C@@H](CC(C)C)NC(=O)[C@H](CCCN)NC(=O)[C@H](C(C)C)NC(=O)[C@H](Cc3ccc(-c4ccccc4)cc3)NC(=O)[C@H](C(C)C)NC2=O)c1 [Compound 3220] ({CH2CO}-RY(Carboxymethyl)D[Phe(3-Me)]V[Bip]V[Orn][dL][Dab][Cha]V[Dap]C[AEEA][Dab][Aun]-OH; thioether N-14)
  IC50: 11.5 nM

## CC(C)C[C@H]1NC(=O)[C@H](CCCN)NC(=O)[C@H](C(C)C)NC(=O)[C@H](Cc2ccc(-c3ccccc3)cc2)NC(=O)[C@H](C(C)C)NC(=O)[C@H](Cc2c[nH]c3ccccc23)NC(=O)[C@H](CC(=O)O)NC(=O)[C@H](Cc2ccc(C(=O)O)cc2)NC(=O)[C@H](Cc2ccc(OCC(=O)O)cc2)NC(=O)CSC[C@@H](C(=O)NCC(=O)NCCOCCOCC(=O)N[C@@H](CCCN)C(=O)NCCCCCCCCCCC(=O)O)NC(=O)[C@H](CCCN)NC(=O)[C@H](C(C)C)NC(=O)[C@H](CC2CCCCC2)NC(=O)[C@H](CCN)NC1=O [Compound 3228] ({CH2CO}-Y(Carboxymethyl)[Phe(4-COOH)]DWV[Bip]V[Orn][dL][Dab][Cha]V[Orn]CG[AEEA][Orn][Aun]-OH; thioether N-14)
  IC50: 9.8 nM

## CC(C)C[C@H]1NC(=O)[C@H](CCCN)NC(=O)[C@H](C(C)C)NC(=O)[C@H](Cc2ccc(-c3ccccc3)cc2)NC(=O)[C@H](C(C)C)NC(=O)[C@H](Cc2c[nH]c3ccccc23)NC(=O)[C@H](CC(=O)O)NC(=O)[C@H](Cc2ccc(OCC(=O)O)cc2)NC(=O)[C@H](Cc2ccc(OCC(=O)O)cc2)NC(=O)CSC[C@@H](C(=O)NCC(=O)NCCOCCOCC(=O)N[C@@H](CCCN)C(=O)NCCCCCCCCCCC(=O)O)NC(=O)[C@H](CCCN)NC(=O)[C@H](C(C)C)NC(=O)[C@H](CC2CCCCC2)NC(=O)[C@H](CCN)NC1=O [Compound 3229] ({CH2CO}-Y(Carboxymethyl)Y(Carboxymethyl)DWV[Bip]V[Orn][dL][Dab][Cha]V[Orn]CG[AEEA][Orn][Aun]-OH; thioether N-14)
  IC50: 6.9 nM

## CC(C)C[C@H]1NC(=O)[C@H](CCCN)NC(=O)[C@H](C(C)C)NC(=O)[C@H](Cc2ccc(-c3ccccc3)cc2)NC(=O)[C@H](C(C)C)NC(=O)[C@H](Cc2c[nH]c3ccccc23)NC(=O)[C@H](CC(=O)O)NC(=O)[C@H](Cc2ccc(OCC(=O)O)cc2)NC(=O)[C@H](CCCNC(=N)N)NC(=O)CSC[C@@H](C(=O)NCC(=O)NCCOCCOCC(=O)N[C@@H](CCCN)C(=O)NCCCCCCCCCCC(=O)O)NC(=O)[C@H](CO)NC(=O)[C@H](C(C)C)NC(=O)[C@H](CC2CCCCC2)NC(=O)[C@H](CCN)NC1=O [Compound 3230] ({CH2CO}-RY(Carboxymethyl)DWV[Bip]V[Orn][dL][Dab][Cha]VSCG[AEEA][Orn][Aun]-OH; thioether N-14)
  IC50: 8.9 nM
